According to publication PMC7081907, “Discovery and Selection of Hepatitis B Virus-Derived T Cell Epitopes for Global Immunotherapy Based on Viral Indispensability, Conservation, and HLA-Binding Strength” (Journal of Virology, 2020):
Marks after values point to notes of the source that are not given here.

Columns and labels:
[1] = system: HBV-specific T cells; details: cumulative over papers, responder = positive multimer staining and/or IFN-γ ELISPOT, ref Hepitopes database [24], [49], cited from earlier work; for % responders (no. of responders/total no. of subjects tested), HCC: HBV-positive HCC patients; for % responders (no. of responders/total no. of subjects tested), Chronic: chronic HBV patients; for % responders (no. of responders/total no. of subjects tested), Acute: patients with acute/resolved HBV infection, asterisk = significantly more prevalent than in other groups;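 as to all read-outs here: responder rates refer to previously reported epitopes of HBx or polymerase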
[2] = molecular target: HLA-A*24:02 (Homo sapiens, UniProt P04439, D101N/D140Y/D185E/E176V/E190D/F33S/G103R/G107R/I119L/I121M/I306V/K335N/L105A/L180Q/L300P/N151K/N90K/Q86E/Q94H/R106L/R138H/R89G/T104I/T345S/V100E/W191G/Y123F); test: UV-based in vitro HLA binding assay (peptide exchange + HLA-I ELISA), HLA-A*24:02; details: conditional pHLA 0.53 μM, peptide 50 μM, 30 min 366-nm UV, absorbance 414 nm normalized to high-affinity positive control (100%), two exchanges, each in duplicate
Procedure: (§1) Next, the HLA-binding capacity of selected peptides was tested in a UV-based in vitro binding assay. […] HLA-A*11:01 and HLA-A*03:01 were both tested as members of the HLA-A*03 supertype since many HBV-infected patients are Asian and HLA-A*11:01 is more prevalent in this population than the supertype representative HLA-A*03:01, which is more prevalent in Caucasians ([72]). We identified 13 binders for HBx and 33 for Pol across HLA supertypes, including novel binders that have been described previously in the context of another HLA type (Fig. 5A to G, dotted underlining, and Fig. 5H). […] In contrast, binding of infrequently reported epitopes (Fig. 5, solid underlining) could not always be verified.
(§2) Synthetic peptides (Peptide 2.0 Inc.) of selected potential HLA binders were used in an in vitro binding assay as described previously ([96]). […] Subsequently, the peptide exchange efficiency was analyzed using an HLA-I enzyme-linked immunosorbent assay (ELISA), which detects beta-2-microglobulin of peptide-stabilized HLA-I complexes in an exchange reaction mixture. […] The reaction was stopped after 8 min (incubation at room temperature) by the addition of a 2% (wt/vol) oxalic acid dihydrate stop solution (Sanquin Reagents BV) and read in a Thermo Electron Multiskan Ascent ELISA reader at 414 nm. […] Every exchange mixture was measured in duplicate by the HLA-I ELISA. […]

[3] = system: PBMCs from blood donors who had previously resolved an HBV infection; test: Immunogenicity: IFN-γ ELISA on peptide-expanded PBMCs of HBV resolvers; assay type: cell-based, human; details: for number of responsive donors as a fraction of the total number of subjects tested: PBMCs expanded 14 days, restimulated 48 h, 10 μg/ml/peptide, response = mean OD ≥ mean + 2 SD of DMSO; for IFN-γ production in response to peptide, in words: expanded PBMCs from 9 HBV resolvers, HLA-matched, single-peptide restimulation 48 h, 10 μg/ml, DMSO-subtracted
Procedure: Finally, the immunogenicity of all HBx- and Pol-derived binders was assessed to determine which binders would be most interesting for the development of an antigen-based HBV-targeting immunotherapy.
Briefly, PBMCs were isolated by Ficoll (GE Healthcare) density centrifugation from buffy coats of 9 donors who had previously resolved HBV infection. Buffy coats were provided by the local blood bank with corresponding 2-digit HLA types. Four-digit HLA typing was performed for 7 out of 9 donors using the global screening array (GSA) (Illumina through the Human Genomics Facility, Erasmus MC Rotterdam) (Table 3). All donors gave written informed consent. PBMCs were cultured in Iscove’s modified Dulbecco’s medium (IMDM) (Lonza) containing 2% human serum (Sanquin) and 50 IU/ml human interleukin-2 (hIL-2) (Miltenyi) in the presence of peptide pools of a maximum of 5 peptides of interest based on HLA matching at 10 μg/ml/peptide. After 14 days, 200,000 cells were restimulated with the peptides of interest for 48 h at 37°C with 10 μg/ml/peptide in triplicate. Supernatants from restimulations were subsequently used in a human IFN-γ (hIFN-γ) ELISA (BioLegend) according to the manufacturer’s instructions. Plates were read at a 450-nm wavelength using an Infinite 200Pro ELISA reader. hIFN-γ levels were calculated from background-subtracted optical density (OD) values (means from triplicates) using a supernatant derived from a previously successful restimulation with c18-27 that was quantified in a separate ELISA using the hIFN-γ standard provided by the manufacturer. HLA binders with a mean OD value of at least the mean plus 2 times the standard deviation (SD) of the dimethyl sulfoxide (DMSO) control were quantified.

[4] = system: cytotoxic T cells; details: HLA-A*24:02 peptide, ref Yamamiya et al. [89]; cited from earlier work
From the text: We identified a few novel epitopes for which the sequence overlaps that of an epitope that has previously been described for the HLA type tested. […] It would now be interesting to investigate how responses to these epitope variants relate in CHB patients, especially since p755-764 has been the only HBV-derived epitope described for supertype HLA-A*24 until very recently. For HLA-A*24:02, we studied the binding cap ...

[5] = molecular target: HLA-B*08:01 (Homo sapiens, UniProt P01889, A93T/A95T/D138N/E176V/E187T/K202T/Q94N/R180D/S35A/V36M/Y33D/Y91F); test: UV-based in vitro HLA binding assay (peptide exchange + HLA-I ELISA), HLA-B*08:01; details: conditional pHLA 0.53 μM, peptide 50 μM, 30 min 366-nm UV, absorbance 414 nm normalized to high-affinity positive control (100%), two exchanges, each in duplicate
From the text: Nonbound material was removed by washing. […] Every peptide was independently exchanged twice.

[6] = molecular target: HLA-B*07:02 (Homo sapiens, UniProt P01889); test: UV-based in vitro HLA binding assay (peptide exchange + HLA-I ELISA), HLA-B*07:02; details: conditional pHLA 0.53 μM, peptide 50 μM, 30 min 366-nm UV, absorbance 414 nm normalized to high-affinity positive control (100%), two exchanges, each in duplicate
Procedure: as §1, §2

## ALMPLYACI [p653-661]
[1]
  % responders (no. of responders/total no. of subjects tested), HCC: 0 (0/10) %
  % responders (no. of responders/total no. of subjects tested), Chronic: 0 (0/9) %
  % responders (no. of responders/total no. of subjects tested), Acute: 20 (4/20) %

## ASFCGSPYSW [p166-175]
[2]
  HLA binding class (binder/nonbinder), HLA-A*24:02: binder (binders (>25% of the positive control))

## CLFKDWEEL
[1]
  % responders (no. of responders/total no. of subjects tested), HCC: 50 (3/6) %

## FLLSLGIHL [p573-581]
[1]
  % responders (no. of responders/total no. of subjects tested), HCC: 0 (0/10) %
  % responders (no. of responders/total no. of subjects tested), Chronic: 13 (9/70) %
  % responders (no. of responders/total no. of subjects tested), Acute: 59 (50/85)* %

## GLSRYVARL [p453-461]
[1]
  % responders (no. of responders/total no. of subjects tested), HCC: 0 (0/10) %
  % responders (no. of responders/total no. of subjects tested), Chronic: 6 (5/87) %
  % responders (no. of responders/total no. of subjects tested), Acute: 50 (39/78)* %

## GYPALMPLY [p650-658]
[3]; HLA-A*24:02 donors
  number of responsive donors as a fraction of the total number of subjects tested: 1 of the 2
[4]
  responding HBV resolvers: none of the 3

## HLSLRGLPV [x52-60]
[5]
  HLA binding class (binder/nonbinder), HLA-B*08:01: binder (binders (>25% of the positive control))
[1]
  % responders (no. of responders/total no. of subjects tested), HCC: 19 (3/16) %
  % responders (no. of responders/total no. of subjects tested), Chronic: 0 (0/20) %

## HPAAMPHLL [p440-448]
[1]
  % responders (no. of responders/total no. of subjects tested), Acute: 0 (0/12) %

## HTLWKAGILYK [p149-159]
[1]
  % responders (no. of responders/total no. of subjects tested), Acute: 5 (1/22) %

## ILRGTSFVYV
[1]
  % responders (no. of responders/total no. of subjects tested), Chronic: 0 (0/9) %
  % responders (no. of responders/total no. of subjects tested), Acute: 43 (3/7) %

## KLVCSPAPC
[1]
  % responders (no. of responders/total no. of subjects tested), HCC: 50 (3/6) %

## KVGNFTGLY [p55-63]
[1]
  % responders (no. of responders/total no. of subjects tested), Acute: 9 (2/22) %

## KYTSFPWLL [p756-764]
[1]
  % responders (no. of responders/total no. of subjects tested), Chronic: 48 (10/21) %
  % responders (no. of responders/total no. of subjects tested), Acute: 93 (13/14)* %

## LVVDFSQFSR [p388-397]
[1]
  % responders (no. of responders/total no. of subjects tested), Acute: 5 (1/22) %

## NLSWLSLDV [p422-430]
[1]
  % responders (no. of responders/total no. of subjects tested), HCC: 0 (0/10) %

## NVSIPWTHK [p47-55]
[1]
  % responders (no. of responders/total no. of subjects tested), Acute: 5 (1/21) %

## QAFTFSPTYK [p665-674]
[1]
  % responders (no. of responders/total no. of subjects tested), Acute: 14 (3/21) %

## QLDPARDVL
[1]
  % responders (no. of responders/total no. of subjects tested), HCC: 0 (0/10) %
  % responders (no. of responders/total no. of subjects tested), Chronic: 0 (0/20) %
  % responders (no. of responders/total no. of subjects tested), Acute: 25 (1/4) %

## RKYTSFPWLL [p755-764]
[3]
  IFN-γ production in response to peptide, in words: superior IFN-γ production compared to the known epitope p756-764 in both donors tested

## SAICSVVRR
[1]
  % responders (no. of responders/total no. of subjects tested), Acute: 9 (2/22) %

## SLYADSPSV [p814-822]
[1]
  % responders (no. of responders/total no. of subjects tested), Chronic: 0 (0/22) %
  % responders (no. of responders/total no. of subjects tested), Acute: 25 (11/44)* %

## TLWKAGILYK [p150-159]
[1]
  % responders (no. of responders/total no. of subjects tested), Acute: 18 (5/28) %

## TPARVTGGVF [p365-374]
[6]
  HLA binding class (binder/nonbinder), HLA-B*07:02: binder (binders (>25% of the positive control))
[3]; HLA-B*07:02 donors
  number of responsive donors as a fraction of the total number of subjects tested: 4/4
[1]
  % responders (no. of responders/total no. of subjects tested), Acute: 17 (2/12) %

## VLGGCRHKL [x133-141]
[1]
  % responders (no. of responders/total no. of subjects tested), HCC: 0 (0/10) %
  % responders (no. of responders/total no. of subjects tested), Chronic: 0 (0/20) %

## VLHKRTLGL [x92-100]
[5]
  HLA binding class (binder/nonbinder), HLA-B*08:01: binder (binders (>25% of the positive control))
[1]
  % responders (no. of responders/total no. of subjects tested), HCC: 19 (3/16) %
  % responders (no. of responders/total no. of subjects tested), Chronic: 0 (0/20) %

## YLHTLWKAGI [p147-156]
[1]
  % responders (no. of responders/total no. of subjects tested), HCC: 0 (0/10) %

## YMDDVVLGA [p549-557]
[3]
  IFN-γ production in response to peptide, in words: IFN-γ production was detected
[1]
  % responders (no. of responders/total no. of subjects tested), HCC: 0 (0/10) %
  % responders (no. of responders/total no. of subjects tested), Chronic: 0 (0/21) %
  % responders (no. of responders/total no. of subjects tested), Acute: 15 (2/13) %

## YPALMPLYA [p651-659]
[1]
  % responders (no. of responders/total no. of subjects tested), Acute: 0 (0/12) %
